According to PubChem BioAssay (NCI):
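GI50: concentration for 50% inhibition of growth. TGI marks complete inhibition of growth.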

Key:
Assay in all cases: inhibition of tumour cell growth, NCI panel, 384-well format
OVCAR-4 ovarian = system: OVCAR-4 ovarian
MDA-MB-468 breast = system: MDA-MB-468 breast
ACHN renal = system: ACHN renal
SF-268 CNS = system: SF-268 CNS
MCF7 breast = system: MCF7 breast
CCRF-CEM leukemia = system: CCRF-CEM leukemia
LOX IMVI melanoma = system: LOX IMVI melanoma
T-47D breast = system: T-47D breast
A498 renal = system: A498 renal
MALME-3M melanoma = system: MALME-3M melanoma
UACC-257 melanoma = system: UACC-257 melanoma
DU-145 prostate = system: DU-145 prostate
TK-10 renal = system: TK-10 renal
IGROV1 ovarian = system: IGROV1 ovarian
SNB-75 CNS = system: SNB-75 CNS
HL-60(TB) leukemia = system: HL-60(TB) leukemia
NCI/ADR-RES ovarian = system: NCI/ADR-RES ovarian
HOP-62 NSCLC = system: HOP-62 NSCLC
K-562 leukemia = system: K-562 leukemia
M14 melanoma = system: M14 melanoma
NCI-H460 NSCLC = system: NCI-H460 NSCLC
HOP-92 NSCLC = system: HOP-92 NSCLC
OVCAR-5 ovarian = system: OVCAR-5 ovarian
MDA-MB-435 melanoma = system: MDA-MB-435 melanoma
SNB-19 CNS = system: SNB-19 CNS
EKVX NSCLC = system: EKVX NSCLC
OVCAR-3 ovarian = system: OVCAR-3 ovarian
PC-3 prostate = system: PC-3 prostate

## CC[C@@H](C)Nc1cc(C(=O)NC2CC3CCC(C2)N3c2ccc(C(=O)C3CC3)cn2)c(C)cc1C(N)=O (stereo not given in full)
OVCAR-4 ovarian
  TGI: 23500 nM
MDA-MB-468 breast
  GI50: 17.9 nM
  TGI: 42.8 nM
ACHN renal
  GI50: 45 nM
  TGI: 28400 nM
SF-268 CNS
  GI50: 11 nM
  TGI: 36.3 nM
MCF7 breast
  GI50: < 10 nM
  TGI: 237 nM
CCRF-CEM leukemia
  GI50: < 10 nM
  TGI: 37 nM
LOX IMVI melanoma
  GI50: 16.6 nM
  TGI: 31.7 nM
T-47D breast
  GI50: 12.2 nM
  TGI: 52.8 nM
A498 renal
  GI50: 23.3 nM
  TGI: 17600 nM
MALME-3M melanoma
  GI50: 19.9 nM
  TGI: 78.5 nM
UACC-257 melanoma
  GI50: 62.1 nM
  TGI: 25100 nM
DU-145 prostate
  GI50: 23.8 nM
  TGI: 732 nM
TK-10 renal
  GI50: 42 nM
  TGI: 32800 nM
IGROV1 ovarian
  GI50: 13 nM
  TGI: 85.9 nM
SNB-75 CNS
  GI50: 82.4 nM
  TGI: 464 nM
HL-60(TB) leukemia
  GI50: 12.6 nM
  TGI: 26.3 nM
NCI/ADR-RES ovarian
  GI50: 277 nM
  TGI: 782 nM
HOP-62 NSCLC
  GI50: 29.5 nM
  TGI: 13700 nM
K-562 leukemia
  GI50: 19.9 nM
  TGI: 205 nM
M14 melanoma
  GI50: 31 nM
  TGI: 12800 nM
NCI-H460 NSCLC
  GI50: < 10 nM
  TGI: 24.3 nM
HOP-92 NSCLC
  GI50: 28.5 nM
  TGI: 70.8 nM
OVCAR-5 ovarian
  GI50: 39.9 nM
  TGI: 30800 nM
MDA-MB-435 melanoma
  GI50: 62.6 nM
  TGI: 23300 nM
SNB-19 CNS
  GI50: 41.6 nM
  TGI: 17300 nM
EKVX NSCLC
  GI50: 36.7 nM
  TGI: 17700 nM
OVCAR-3 ovarian
  GI50: 24.5 nM
  TGI: 84.1 nM
PC-3 prostate
  GI50: 28.3 nM
  TGI: 85.9 nM
